From US20240279294A1, “p53 VARIANT WITH IMPROVED LIQUID-LIQUID PHASE SEPARATION ABILITY AND ACTIVITY AND USE THEREOF” (Zhejiang University, priority 2023, published 2024)

B1: LLPSE-p53 (SEQ ID NO.7): p53 in rat with added sequence (including linker) GGASGHHHHHHHHGGAGGGGRRRRRRKK (protein)
chain: MEDSQSDMSIELPLSQETFSCLWKLLPPDDILPTTATGSPNSMEDLFLPQDVAELLEGPEEALQVSAPAAQEPGTEAPAPVAPASATPWPLSSSVPSQKTYQGNYGFHLGFLQSGTAKSVMCTYSISLNKLFCQLAKTCPVQLWVTSTPPPGTRVRAMAIYKKSQHMTEVVRRCPHHERCSDGDGLAPPQHLIRVEGNPYAEYLDDRQTFRHSVVVPYEPPEVGSDYTTIHYKYMCNSSCMGGMNRRPILTIITLEDSSGNLLGRDSFEVRVCACPGRDRRTEEENFRKKEEHCPELPPGSAKRALPTSTSSSPQQKKKPLDGEYFTLKIRGRERFEMFRELNEALELKDARAAEESGDSRAHSSYPKTKKGQSTSRHKKPMIKKVGPDSDGGASGHHHHHHHHGGAGGGGRRRRRRKK

Columns and labels:
U-2OS cells = test: cell viability (CCK8), protein delivery combined with TAS-120 or IWR-1, U-2OS; type: cell-based, human; settings: LLPSE-p53 (SEQ ID NO.3) protein 0.5-2 μM 24 h, then inhibitor 5-20 μM 24 h; compared with inhibitor plus buffer
Method: The above system was sterilized with a 0.22 μm filter membrane. • 4. The complete medium in the well plate was sucked and discarded, and the above protein delivery system was added, the plate was then placed in an incubator for culture for 24 h. • 5. […] Cell viability was measured by a CCK8 method and with a M5 microplate reader. • 7. Graphpad5 software was used for data processing and one-way ANOVA method was used for statistical analysis.

CDKN1A = CDKN1A luciferase reporter assay in H1299 cells; type: cell-based, human; settings: H1299, plasmid co-transfected with CDKN1A reporter gene plasmid, 24 h; compared with WT-p53
Method: (§1) Implementation was made as follows: • 1. Proper number of cells were seeded into a 96-well cell culture plate, plasmids and CDKN1A reporter gene plasmid were co-transformed when cell density reached 60-70%, the cells were then cultured in an incubator for 24 h. • 2. A chemiluminescence test was carried out with a luciferase reporting system test kit produced by Promega and a M5 microplate reader. • 3. Graphpad5 software was used for data processing and analysis.
as §1, with “chemiluminescence assay” for “chemiluminescence test”, “with the” for “with a”, “system” for “system test”
Specific implementation steps can refer to Example 8.

Molecule	killing of U-2OS cells by the inhibitor when combined with LLPSE-p53 protein (U-2OS cells)	transactivation activity on CDKN1A (CDKN1A)
O=C(Nc1cccc2cccnc12)c1ccc(N2C(=O)[C@@H]3[C@H](C2=O)[C@@H]2C=C[C@H]3C2)cc1 [IWR-1]	significantly promotes TAS-120 or IWR-1 to kill U-2OS cells	
B1		significantly increases the transactivation activity of CDKN1A
